Converted amounts (≈) assume the structure as drawn. Like-named read-outs stand apart in the source and are kept apart here.
How the values were obtained:
Experiment in all cases: Calcein AM viability assay, dilution-series retest
BJ-TERT cells = format: cell-based; details: Homo sapiens, 48 h, read-out: IC50, BJ-TERT
Excerpt: (§1) Described here is work carried out to identify compounds with increased potency or activity in the presence of hTERT, LT, ST, E6, E7 or RAS^V12. Engineered cell lines with these genetic elements were used to screen […] compounds, including 20,000 compounds from a combinatorial library, 1,990 compounds from the National Cancer Institute diversity collection, and 1,540 biologically active known compounds that were selected and purchased by Applicant and formatted into a screenable collection. The primary screen tested (in quadruplicate) the effect of treating tumorigenic BJ-TERT/LT/ST/RAS^V12 engineered tumorigenic cells with each compound for 48 hours at a concentration of 4 μg/mL, corresponding to 10 μM for a compound with a molecular weight of 400, which is the approximate median molecular weight of the libraries. Cell viability was measured using the dye calcein acetoxymethyl ester (calcein AM) (Wang et al., 1993, Hum. Immunol. 3 7, 264-270), which is a non-fluorescent compound that freely diffuses into cells. In live cells, calcein AM is cleaved by intracellular esterases, forming the anionic fluorescent derivative calcein, which cannot diffuse out of live cells. […] The IC50 value (concentration required to inhibit 50% of the calcein AM signal) was calculated for each compound in each cell line (Table 1). […] Following is a more detailed analysis of these nine compounds.
(§2) Calcein acetoxylmethyl ester (AM) is a cell membrane-permeable, non-fluorescent compound that is cleaved by intracellular esterases to form the anionic, cell-impermeable, fluorescent compound calcein. Viable cells are stained by calcein because of the presence of intracellular esterases and because the intact plasma membrane prevents fluorescent calcein from leaking out of cells (Wang et al., 1993, supra). Cells were seeded in 384-well plates using a Zymark Sciclone ALH, treated with each compound in triplicate at 4 μg/mL in the primary screen for two days, washed with phosphate-buffered saline on a Packard Minitrak with a 384-well washer and incubated for four hours with 0.7 μg/mL calcein (Molecular Probes). Total fluorescence intensity in each well was recorded on a Packard Fusion platereader, and converted to a percent inhibition of signal by subtracting the instrument background and dividing by the average signal obtained when cells were not treated with any compound.
(§3) Replica daughter plates were prepared with a Zymark Sciclone ALH and integrated Twister II by diluting stock plates 50 fold in medium lacking serum and pen/strep to obtain a compound concentration in daughter plates of 80 μg/ml with 2% DMSO. Assay plates were prepared by seeding cells in black, clear bottom 384-well plates in columns 1-23 (6000 cells/well in 57 μl) using a syringe bulk dispenser. Columns 3-22 were treated with compounds from a daughter library plate by transferring 3 μl from the daughter library plate using 384-position fixed cannula array. The final compound concentrations in assay plates were thus 4 μg/ml. The assay plates were incubated for 48 hours at 37° C. in humidified incubator containing 5% CO2. Plate processing for the calcein AM viability assay was performed using an integrated Minitrak/Sidetrak robotic system from Packard Bioscience (Perkin Elmer). Assay plates were washed with phosphate buffered saline, and 20 μl of calcein AM (0.7 μg/ml) per well was added. Plates were incubated at room temperature for 4 hours. Fluorescence intensity was determined using a Fusion platereader with filters centered on an excitation of 485 nm and an emission of 535 nm.
(§4) Compounds to be retested were purchased from manufacturers. Stocks were prepared in DMSO at a concentration of 1 mg/ml in 384-well polypropylene plates with a 16-point, two-fold dilution dose curve of each compound in a column, in duplicates. Column 1-2 and 23-24 were left empty for controls. […]

BJ-TERT/LT/RAS^V12 cells = format: cell-based; details: Homo sapiens, 48 h, read-out: IC50, BJ-TERT/LT/Ras^V12
Excerpt: as §1, §2, §3, §4

TIP5/TERT/E6 cells = format: cell-based; details: Homo sapiens, 48 h, read-out: IC50, TIP-TERT/E6
Excerpt: (§5) In a third series, cell lines derived from independently prepared human TIP5 foreskin fibroblasts created by introducing cDNA constructs encoding hTERT, LT, ST and RASV12 (Lessnick et al., 2002, Cancer Cell 1, 393-401) were used. These cell lines were called, respectively: TIP5/TERT, TIP5/TERT/LT, TIP5/TERT/LT/ST, and TIP5/TERT/LT/ST/RAS^V12. In a fourth series, cell lines derived from TIP5 fibroblasts created by introducing cDNA constructs encoding hTERT, E6, E7, ST and RAS^V12 were used. These cell lines were named, respectively: TIP5/TERT/E6, TIP5/TERT/E6/E7, TIP5/TERT/E6/E7/ST, and TIP5/TERT/E6/E7/ST/RAS^V12. In this series, HPV E6 and E7, which inactivate p53 and RB, respectively, serve a similar function as LT in the previous series. However, by using HPV E6 and E7, Applicants were able to observe the effects of inactivating, separately and independently, p53 and RB. Results of a large-scale screen for compounds that display selective killing of these engineered tumorigenic cell lines are described in the examples that follow.
as §2, §3
(§6) Compounds to be retested were purchased from manufacturers. Stocks were prepared in DMSO at a concentration of 1 mg/ml in 384-well polypropylene plates with a 16-point, two-fold dilution dose curve of each compound in a column, in duplicates. Column 1-2 and 23-24 were left empty for controls. Daughter retest plates were prepared from stock retest plate by diluting 66.6 fold in DMEM in 384-well deep-deep well plates (4.5 μl transfer into 300 μl). Cells were seeded at a density of 6000 per well in 40 μl, and 20 μl was added from a daughter retest plate. The plates were incubated for two days at 37° C. with 5% CO2.
(§7) Mean RFU (relative fluorescence units) for untreated cells was calculated by averaging columns 1, 2, and 23 (wells with cells but lacking compounds). […]

TIP5/TERT/LT/ST cells = format: cell-based; details: Homo sapiens, 48 h, read-out: IC50, TIP5 TERT/LT/ST
Excerpt: as §5, §2, §3, §6, §7

TIP5/TERT/E6/E7/ST cells = format: cell-based, human; details: Homo sapiens, 48 h, read-out: IC50, TIP5-TERT/E6E7 ST
Excerpt: as §5, §2, §3, §6, §7

TIP5/TERT/LT cells = format: cell-based, human; details: Homo sapiens, 48 h, read-out: IC50, TIP5 TERT/LT
Excerpt: as §5, §2, §3, §6, §7

[1] = BJ-TERT cells, 16-point two-fold dilution, two days
[2] = BJ-TERT/LT/Ras^V12 cells, 16-point two-fold dilution, two days
[3] = TIP-TERT/E6 cells, 16-point two-fold dilution, two days
[4] = TIP5 TERT/LT/ST cells, 16-point two-fold dilution, two days
[5] = TIP5-TERT/E6E7/ST cells, 16-point two-fold dilution, two days
[6] = TIP5 TERT/LT cells, 16-point two-fold dilution, two days

## O=C1c2c(O)ccc(O)c2C(=O)c2c(NCCNCCO)ccc(NCCNCCO)c21 [Mitoxantrone]
BJ-TERT cells; [1]
  IC50: 1.25 µg/mL (≈ 2.81 µM)
BJ-TERT/LT/RAS^V12 cells; [2]
  IC50: 1.25 µg/mL (≈ 2.81 µM)
TIP5/TERT/E6 cells; [3]
  IC50: 1.25 µg/mL (≈ 2.81 µM)
TIP5/TERT/LT/ST cells; [4]
  IC50: 0.625 µg/mL (≈ 1.41 µM)
TIP5/TERT/E6/E7/ST cells; [5]
  IC50: 0.625 µg/mL (≈ 1.41 µM)
TIP5/TERT/LT cells; [6]
  IC50: 1.25 µg/mL (≈ 2.81 µM)

## COc1cccc2c1C(=O)c1c(O)c3c(c(O)c1C2=O)C[C@@](O)(C(=O)CO)C[C@@H]3O[C@H]1C[C@H](N)[C@H](O)[C@H](C)O1 [Doxorubicin]
BJ-TERT cells; [1]
  IC50: 1.25 µg/mL (≈ 2.3 µM)
BJ-TERT/LT/RAS^V12 cells; [2]
  IC50: 1.25 µg/mL (≈ 2.3 µM)
TIP5/TERT/E6 cells; [3]
  IC50: 5 µg/mL (≈ 9.2 µM)
TIP5/TERT/LT/ST cells; [4]
  IC50: 0.625 µg/mL (≈ 1.15 µM)
TIP5/TERT/E6/E7/ST cells; [5]
  IC50: 1.25 µg/mL (≈ 2.3 µM)
TIP5/TERT/LT cells; [6]
  IC50: 1.25 µg/mL (≈ 2.3 µM)

## CS[C@H]1SC[C@H]2C(=O)N(C)[C@@H](C(C)C)C(=O)OC[C@@H](NC(=O)c3cnc4ccccc4n3)C(=O)N[C@@H](C)C(=O)N(C)[C@@H]1C(=O)N(C)[C@@H](C(C)C)C(=O)OC[C@@H](NC(=O)c1cnc3ccccc3n1)C(=O)N[C@@H](C)C(=O)N2C [Echinomycin]
BJ-TERT cells
  IC50: 0.312 µg/mL (≈ 0.283 µM)
BJ-TERT/LT/RAS^V12 cells
  IC50: 0.0048 µg/mL (≈ 0.00436 µM)
TIP5/TERT/E6 cells
  IC50: > 5 µg/mL
TIP5/TERT/LT/ST cells
  IC50: 0.0048 µg/mL (≈ 0.00436 µM)
TIP5/TERT/E6/E7/ST cells
  IC50: 0.048 µg/mL (≈ 0.0436 µM)
TIP5/TERT/LT cells
  IC50: 5 µg/mL (≈ 4.54 µM)

## NC(=O)c1cn([C@@H]2O[C@H](CO)[C@@H](O)[C@H]2O)c2ncnc(N)c12 [Sangivamycin]
BJ-TERT cells
  IC50: 0.039 µg/mL (≈ 0.126 µM)
BJ-TERT/LT/RAS^V12 cells
  IC50: 0.078 µg/mL (≈ 0.252 µM)
TIP5/TERT/E6 cells
  IC50: 0.156 µg/mL (≈ 0.504 µM)
TIP5/TERT/LT/ST cells
  IC50: 0.039 µg/mL (≈ 0.126 µM)
TIP5/TERT/E6/E7/ST cells
  IC50: 0.078 µg/mL (≈ 0.252 µM)
TIP5/TERT/LT cells
  IC50: 0.312 µg/mL (≈ 1.01 µM)

## COc1ccc(C[C@H]2C(=O)N[C@@H](C)C(=O)N(C)[C@@H]3C(=O)N(C)[C@@H](Cc4ccc(O)c(c4)Oc4ccc(cc4)[C@@H]3O)C(=O)N[C@H](C)C(=O)N[C@@H](C)C(=O)N2C)cc1 [Bouvardin]
BJ-TERT cells
  IC50: 0.078 µg/mL (≈ 0.101 µM)
BJ-TERT/LT/RAS^V12 cells
  IC50: 0.078 µg/mL (≈ 0.101 µM)
TIP5/TERT/E6 cells
  IC50: 0.078 µg/mL (≈ 0.101 µM)
TIP5/TERT/LT/ST cells
  IC50: 0.039 µg/mL (≈ 0.0505 µM)
TIP5/TERT/E6/E7/ST cells
  IC50: 0.039 µg/mL (≈ 0.0505 µM)
TIP5/TERT/LT cells
  IC50: 0.312 µg/mL (≈ 0.404 µM)

## COc1cccc2c1C(=O)c1c(O)c3c(c(O)c1C2=O)C[C@@](O)(C(C)=O)C[C@@H]3O[C@H]1C[C@H](N)[C@H](O)[C@H](C)O1 [Daunorubicin]
BJ-TERT cells
  IC50: 1.25 µg/mL (≈ 2.37 µM)
BJ-TERT/LT/RAS^V12 cells
  IC50: 1.25 µg/mL (≈ 2.37 µM)
TIP5/TERT/E6 cells
  IC50: 5 µg/mL (≈ 9.48 µM)
TIP5/TERT/LT/ST cells
  IC50: 0.625 µg/mL (≈ 1.18 µM)
TIP5/TERT/E6/E7/ST cells
  IC50: 0.625 µg/mL (≈ 1.18 µM)
TIP5/TERT/LT cells
  IC50: 1.25 µg/mL (≈ 2.37 µM)

## CC[C@@]1(O)C(=O)OCc2c1cc1n(c2=O)Cc2cc3ccccc3nc2-1 [Camptothecin]
BJ-TERT cells; [1]
  IC50: > 5 µg/mL
BJ-TERT/LT/RAS^V12 cells; [2]
  IC50: 1.25 µg/mL (≈ 3.59 µM)
TIP5/TERT/E6 cells; [3]
  IC50: > 5 µg/mL
TIP5/TERT/LT/ST cells; [4]
  IC50: 0.156 µg/mL (≈ 0.448 µM)
TIP5/TERT/E6/E7/ST cells; [5]
  IC50: 0.156 µg/mL (≈ 0.448 µM)
TIP5/TERT/LT cells; [6]
  IC50: > 5 µg/mL

## CCOc1ccccc1-n1c(C(C)N2CCN(C(=O)COc3ccc(Cl)cc3)CC2)nc2ccccc2c1=O (stereo not drawn) [Erastin]
BJ-TERT cells; [1]
  IC50: > 5 µg/mL
BJ-TERT/LT/RAS^V12 cells; [2]
  IC50: > 5 µg/mL
TIP5/TERT/E6 cells; [3]
  IC50: > 5 µg/mL
TIP5/TERT/LT/ST cells; [4]
  IC50: 5 µg/mL (≈ 9.14 µM)
TIP5/TERT/E6/E7/ST cells; [5]
  IC50: > 5 µg/mL
TIP5/TERT/LT cells; [6]
  IC50: > 5 µg/mL

Reference: US20050032124A1, “Identification of genotype-selective agents for treating Huntington's disease” (priority 2003, published 2005)
